Assay results published in US20090326008A1, “NF-kappa B Inhibitor” (priority 2006, published 2009).

Legend:
Format in all cases: cell-based, human
[1] = test system: NF-κB; assay: NF-kappaB reporter assay (pNF-kappaB-SEAP) in IL-1β-stimulated MKN-45 cells; conditions: IL-1β 2 ng/mL for 6 hours, DMSO (0.05%) control = 1.00, triplicate
Description: pNF-kappaB-SEAP was obtained from Clonetech Laboratories Inc.
Cryopreserved MKN-45 cells (product of JCRB (Japanese Collection of Research Bioresources)) were thawed and cultured in a standard medium in an incubator (37° C., 5% CO2). Every three to five days, the cells were recovered by treatment with Trypsin-EDTA, then adequately diluted and subcultured. MKN-45 cells subcultured two or more times with a survival rate of 95% or more were used in each experiment.
The subcultured MKN-45 cells were harvested using Trypsin-EDTA solution, and the number of viable cells was counted. The cells were suspended in a standard medium to yield a 1.5×10^5 cells/mL suspension. A 24-well plate was seeded with 500 μL/well of the cell suspension, and the cells were cultured in an incubator (37° C., 5% CO2).
The day after seeding, transfection was performed according to the following protocol.
(4.1) Preparation of Plasmid Solution 4 μL of 0.1 μg/μL pNFkappaB-SEAP was placed into each well and diluted with 50 μL of OPTI-MEM I (product of Invitrogen Japan K.K.) by mixing by inversion.
1 μL of Lipofectamine 2000 reagent (product of Invitrogen) was placed into each well and diluted with 50 μL of OPTI-MEM I (product of Life Technologies Inc.) by mixing by inversion. The mixture was allowed to stand at room temperature for 5 to 10 minutes to prepare a Lipofectamine dilution.
The plasmid solution and the Lipofectamine dilution were mixed by inversion and allowed to stand at room temperature for 20 to 30 minutes to prepare a transfection mixture.
The culture medium was removed from the 24-well plate by suction. While care was taken not to dry the subcultured MKN-45 cells, the inner surface of the wells was washed with 1 mL/well of PBS. After the medium was replaced with 500 μL/well of OPTI-MEM I (product of Life Technologies Inc.), 100 μL/well of the transfection mixture was added, and the cells were cultured in a incubator (37° C., 5% CO2). After about 5 hours of incubation, the medium was replaced with a standard medium, and the cells were further cultured in a CO2 incubator (37° C., 5% CO2) until the following day.
On the following morning, the culture medium supernatant was removed by suction and replaced with 1 mL/well of the test compound solution or control solution diluted with a standard medium. The cells were cultured in a CO2 incubator (37° C., 5% CO2) for 1 hour. Each experiment was performed in triplicate.
200 ng/mL IL-1β was added in an amount of 10 μL/well (final concentration: 2 ng/mL), and the cells were cultured in a CO2 incubator (37° C., 5% CO2) for 6 hours.
A reporter assay was performed using Reporter Assay Kit-SEAP (product of Toyobo Co.) according to the manufacturer's protocol.
More specifically, 500 μL of the culture broth was transferred into a tube and centrifuged at 15,000 rpm for 5 minutes at 4° C. The supernatant was transferred into a 96-well white plate. The positive control included in the Reporter Assay Kit-SEAP, and a standard medium as a blank control were each added in an amount of 20 μL/well to the 96-well white plate. Further, an inhibitor for inhibiting the AP activity of the MKN-45 cells was added in an amount of 20 μL/well. After sealing the plate, the contents were mixed well. The plate was placed into a CO2 incubator (37° C., 5% CO2) and allowed to stand for 30 minutes. Subsequently, the plate was allowed to stand on ice for 1 minute, followed by addition of 160 μL/well of Lumi-Phos Plus (a chemiluminescent substrate, product of Lumigen Inc.). The plate was sealed again and placed in a light-shielded state into a CO2 incubator (37° C., 5% CO2). After the plate was allowed to stand for 15 to 30 minutes, luminescence was measured for about 5 to about 10 seconds using a luminometer.
The results of the reporter assay were expressed as Percent Control (or Inhibition), calculated according to the following formulae. The luminescence of each sample was calculated by subtracting the average of blank samples.

[2] = test system: COX2; assay: Relative COX2 mRNA expression in IL-1β-stimulated MKN-45 cells (real-time PCR); conditions: IL-1β-stimulated DMSO-treated cells = 100%, ACTB reference
Description: (§1) RNA was extracted from the cells used in Example 2 according to the manufacturer's protocol for ABI Prism 6100 Nucleic Acid PrepStation (a nucleic acid isolation system, product of Applied Biosystems). More specifically, after removal of the culture supernatant and washing with 1 mL of PBS, 250 μL of Nucleic Acid Purification Lysis Solution (Part No. 4305895, Applied Biosystems) was added, and then agitated using a shaker for 2 to 3 minutes. The Lysis Solution containing the cell lysate was collected, and the total amount was transferred to the wells of RNA Purification Tray (Part No. 4305673, Applied Biosystems), which had been pre-wet with 40 μL of Nucleic Acid Purification Wash Solution I (Part No. 4305891, Applied Biosystems) beforehand. Aspiration (20% pressure) was performed for 2 minutes to adsorb the sample onto the RNA Purification Tray, followed by sequentially adding and aspirating (20% pressure, 2 min.) 500 μL of Wash Solution I, Nucleic Acid Purification (Part No. 4305891, Applied Biosystems), 400 μL of Wash Solution II, Nucleic Acid Purification (Part No. 4305890, product of Applied Biosystems), 400 μL of the Wash Solution II, and 300 μL of the Wash Solution II in that order. Aspiration (90% pressure) was performed for 5 minutes to remove the water content from the RNA Purification Trays. After addition of 150 μL of Elution Solution, Nucleic Acid Purification (Part No. 4305893, product of Applied Biosystems), aspiration (20% pressure) was performed for 2 minutes, while collecting the outflow. This was used as collected RNA solution.
(§2) Absorbance of the collected RNA solution at 260 nm was measured using a microplate spectrophotometer (“SpectraMax Plus”, product of Molecular Devices) with an analysis software (“SOFTmaxPRO ver.3.1.2”, product of Molecular Devices), and the RNA concentration was determined from the absorbance. Likewise, absorbance at 280 nm was measured and the purity of the RNA was determined using the analysis software.
(§3) cDNA was synthesized according to the manufacturer's protocol for TaqMan® Reverse Transcription Reagents (Part No. N808-0234, product of Applied Biosystems). More specifically, about 0.5 μg of RNA, 2.5 μL of 10×RT buffer, 5.5 μL of MgCl2 solution, 5 μL of dNTP mixture, 1.25 μL of random hexamer (primers), 0.5 μL of RNase inhibitor, and 0.63 μL of MultiScribe Reverse Transcriptase (product of Applied Biosystems) were added to each collected RNA sample in a tube, and DEPC-treated water was added to make a total volume of 25 μL and stirred. A reaction consisting of 25° C. for 10 minutes, 48° C. for 30 minutes, and 95° C. for 5 minutes was performed using a PCR thermal cycler (“TaKaRa PCR Thermal Cycler Dice”, product of Takara Bio Inc.) to prepare a cDNA solution.
(§4) PCR was performed according to the manufacturer's protocol for TaqMan® Gene Expression Assays (product of Applied Biosystems). More specifically, 5 μL of TaqMan® Fast Universal PCR Master Mix (product of Applied Biosystems), 0.5 μL of TaqMan® Gene Expression Assays for the target gene (gene-specific probe and primer sets, product of Applied Biosystems), and 4.5 μL of the above-obtained cDNA solution were added to each sample and stirred. A PCR reaction consisting of heating at 95° C. for 20 seconds, followed by 40 cycles consisting of heating at 95° C. for 3 seconds and annealing and extension at 60° C. for 30 seconds was performed using a real-time PCR device (“Applied Biosystems 7500 Real-Time PCR System”) with SDS v1.4 Software (product of Applied Biosystems). Threshold cycle (Ct) values were calculated using the software.
(§5) The Assay IDs of the TaqMan® Gene Expression Assays for the target genes used are as follows:
(§6) The expression level of each gene was determined according to the following formula using the level of ACTB as a reference standard.
(§7) (Relative mRNA expression level)=2̂−{(Ct value of the target gene)−(Ct value of ACTB)} […]

[3] = test system: TNFα; assay: Relative TNFα mRNA expression in IL-1β-stimulated MKN-45 cells (real-time PCR); conditions: IL-1β-stimulated DMSO-treated cells = 100%, ACTB reference
Description: as §1, §2, §3, §4, §5, §6, §7

[4] = test system: IL-8; assay: Relative IL-8 mRNA expression in IL-1β-stimulated MKN-45 cells (real-time PCR); conditions: IL-1β-stimulated DMSO-treated cells = 100%, ACTB reference
Description: as §1, §2, §3, §4, §5, §6, §7

Row | SMILES | NF-kappaB reporter (SEAP luminescence) IL-1b(+) mean, relative to control [1] | COX2 relative mRNA expression level, Mean [2] | TNFa relative mRNA expression level, Mean [3] | IL-8 relative mRNA expression level, Mean [4]
1 | COc1ccc(CC2SC(=O)NC2=O)c2c1N(CCCC(=O)Nc1ccccc1)C(=O)CC2 (stereo not drawn) [Test Compound 608] | 0.71 | 42.4% | 30.8% | 36.5%
2 | COc1ccc(CC2SC(=O)NC2=O)c2c1N(Cc1ccc(NC(=O)C3CCCCC3)cc1)C(=O)CC2 (stereo not drawn) [Test Compound 225] | 0.49 | 32.9% | 44.6% | 50.0%
3 | CC(C)(C)OC(=O)N1CCC(CCN2C(=O)CCc3c(CC4SC(=O)NC4=O)cccc32)CC1 (stereo not drawn) [Test Compound 159] | 0.64 | 27.7% | 33.5% | 34.0%
4 | COc1ccc(CC2SC(=O)NC2=O)c2c1N(Cc1ccc(NC(=O)OCc3ccccc3)cc1)C(=O)CC2 (stereo not drawn) [Test Compound 234] | 0.67 | 24.0% | 32.4% | 28.3%
5 | COc1ccc(CC2SC(=O)NC2=O)c2c1N(CC1CCN(c3ccc(C)cc3)CC1)C(=O)CC2 (stereo not drawn) [Test Compound 164] | 0.78 | 21.7% | 30.0% | 24.8%
6 | O=C1NC(=S)SC1Cc1cccc2c1CCC(=O)N2Cc1ccc2ccccc2c1 (stereo not drawn) [Test Compound 996] | 0.43 | 31.3% | 41.3% | 50.1%
7 | Cc1ccc(CC(=O)N2CCC(CCN3C(=O)CCc4c(CC5SC(=O)NC5=O)cccc43)CC2)cc1 (stereo not drawn) [Test Compound 616] | 0.57 | 26.3% | 31.4% | 35.3%
8 | COc1ccc(CC2SC(=O)NC2=O)c2c1N(Cc1ccc(NS(C)(=O)=O)cc1)C(=O)CC2 (stereo not drawn) [Test Compound 131] | 0.49 | 80.9% | 71.3% | 77.9%
9 | COc1ccc(OC(=O)Nc2ccc(CN3C(=O)CCc4c(CC5SC(=O)NC5=O)ccc(OC)c43)cc2)cc1 (stereo not drawn) [Test Compound 237] | 0.57 | 25.9% | 26.2% | 25.9%
10 | COc1ccc(CC2SC(=S)NC2=O)c2c1N(CC1CC1)C(=O)CC2 (stereo not drawn) [Test Compound 980] | 0.63 | 53.8% | 98.0% | 79.4%
11 | COC(=O)c1ccc(CN2C(=O)CCc3c(CC4SC(=O)NC4=O)ccc(OC)c32)cc1 (stereo not drawn) [Test Compound 025] | 0.58 | 38.3% | 53.0% | 59.9%
12 | COc1ccc(CC2SC(=O)NC2=O)c2c1N(CC(=O)Nc1ccc(C(F)(F)F)cc1)C(=O)CC2 (stereo not drawn) [Test Compound 612] | 0.67 | 33.4% | 31.1% | 41.8%
13 | COc1ccc(CC2SC(=S)NC2=O)c2c1N(CCOc1ccccc1)C(=O)CC2 (stereo not drawn) [Test Compound 981] | 0.68 | 37.8% | 75.7% | 70.4%
14 | COc1ccc(CC2SC(=O)NC2=O)c2c1N(Cc1ccc(OCc3ccccc3)cc1)C(=O)CC2 (stereo not drawn) [Test Compound 127] | 0.60 | 31.0% | 49.8% | 44.8%
15 | COc1ccc(CC2SC(=O)NC2=O)c2c1N(Cc1ccc(NC(=O)Oc3ccc(C)cc3)cc1)C(=O)CC2 (stereo not drawn) [Test Compound 233] | 0.85 | 24.9% | 28.9% | 30.4%
